≈ marks a conversion by molar mass, not a printed value. Where “and” joins values, the source holds several entries; their conditions need not be identical. Equal values may be shown once. Read-outs that look alike come from different tables or passages of the source. Where a SMILES comes first, the peptide text is derived from it. Bridges are numbered along the chain shown (N, C = ends).
What was measured:
[1] = test system: inner membrane of E. tarda; test: Inner membrane penetration, PI staining, flow cytometry; format: cell-based, Edwardsiella tarda; settings: norfloxacin-treated control, all time points of Figure 3B
Description: After washing twice with PBS, the cells were incubated with PI (50 μg/mL) for 15 min and analyzed using a FACS Calibur Flow Cytometer (BD, San Jose, CA, USA).

E. tarda [2] = test: Fish peritonitis model, histopathology; format: in vivo, O. niloticus; settings: N6NH2 (10 mg/kg) or norfloxacin 1.29 mg/kg; hematoxylin and eosin, light microscope; 3 fish/group
Description: The spleen, kidney, liver, intestine and brain samples (3 fish/group) were used for tissue section observation. After 24 h of fixation, all samples were dehydrated with 75–95% ethanol, embedded in paraffin and cut to 6 μm thin sections. Sections were stained with hematoxylin and eosin and observed by a light microscope.

[3] = test system: Escherichia coli, S. typhimurium, S. enteritidis and S. pullorum; test: organism not typed; format: cell-based; settings: range over other Gram-negative strains of Table 2; read-out: MIC
Description: (§1) All tests were conducted in triplicate.

Edwardsiella tarda = test: MIC, broth microdilution
E. tarda cells = test: TEM ultrastructure; format: cell-based, Edwardsiella tarda; settings: 4 × MIC for 2 h, 1 × 10^8 CFU/mL
Description: Mid-log phase E. tarda cells (1 × 10^8 CFU/mL) were incubated with 4 × MIC N6 or N6NH2 for 2 h at 37 °C. The bacterial cells were then centrifuged, washed three times with 0.1 M PBS (pH 7.2) and fixed overnight at 4 °C with 2.5% glutaraldehyde. After washing twice with PBS, the cells were post-fixed with 1% osmium tetroxide (OsO4) for 2 h, dehydrated in a graded ethanol series (from 50% to 100%) for 15 min each time and dried by CO2. The cell samples were sputtered with gold-palladium and observed on a QUANTA200 electron microscopy (FEI, Philips, The Netherlands).
The bacterial cells were treated with peptides as described above, fixed with 2.5% glutaraldehyde at 4 °C overnight and post-fixed with 1% OsO4 for 1 h. After washing three times with PBS, the cells were dehydrated with a graded acetone series (50%, 70%, 85%, 95% and 100%, for 7 min each time) and immersed in mixtures of acetone and resin (3:1, 1:1 and 1:3, 40 min each time). The samples were infiltrated with a pure epoxy resin overnight, embedded in capsules containing embedding medium and polymerized at 45 °C for 3 h and at 65 °C for 24 h, respectively. Thin sections were cut using an ultramicrotome, stained with 1% uranyl acetate and examined by a JEM1400 (JEDL, Tokyo, Japan).

E. tarda [4] = test: pH stability (residual antibacterial activity, inhibition zone); format: physicochemical, Edwardsiella tarda; settings: pH values of 2–10, 3 h incubation; N6 128 μg/mL, norfloxacin 10 μg/mL; inhibition zone method vs E. tarda
Description: (§2) To evaluate the thermal stability of peptides, N6 and N6NH2 were incubated for 1 h at 4, 20, 40, 60, 80 and 100 °C. To measure the pH stability, peptides were incubated for 3 h in 100 mM glycine-HCl buffer (pH 2.0), sodium acetate buffer (pH 4.0), sodium phosphate buffer (pH 6.0), Tris-HCl buffer (pH 8.0) or glycine-NaOH buffer (pH 10.0). In addition, peptides were incubated for 4 h at 37 °C in pepsin (3,000 U/mg, pH 2.0) and trypsin (250 U/mg, pH 8.0) (10:1, w/w) solutions, respectively. […] After treatment, 30 μL of solutions were taken out to determine the antibacterial activity of peptides against E. tarda by the inhibition zone method. The untreated peptides were used as the control. All tests were conducted in triplicate.

Staphylococcus hyicus = test: microbe, parasite or virus in culture; format: cell-based
Description: as §1

E. tarda [5] = test: Fish peritonitis model, bacterial translocation (organ load); format: in vivo, O. niloticus; settings: 1.29 mg/kg norfloxacin i.p. once; 24 h after treatment
Description: Sixty fish were randomly divided into 6 groups (10 fish/group). […] The remaining untreated group served as negative control. The fish injected with saline were used as the blank control. The challenge and treatment were performed as described above. […] Other fish were used to analyze the effects on tissues and immune genes.

E. tarda [6] = test: Thermal stability (residual antibacterial activity, inhibition zone); format: physicochemical, Edwardsiella tarda; settings: incubated 1 h at 20, 40, 60, 80 or 100 °C; N6NH2 64 μg/mL, norfloxacin 10 μg/mL; inhibition zone method; triplicate
Description: as §2

E. tarda [7] = test: Fish peritonitis model, survival; format: in vivo, O. niloticus; settings: 1.29 mg/kg norfloxacin i.p. once
Description: The fish (O. niloticus, Gift strain, 20 g mean weight) were purchased from Beijing Fisheries Technology Extension Center, Hainan Station, China and were acclimated at 25 ± 1 °C. The fish were fed twice daily with commercial pellets for two weeks before experiments.
O. niloticus (6 fish/group) were intraperitoneally injected with LC100 of E. tarda, followed 30 min later by 200 µL N6NH2 (2.5, 5, and 10 mg/kg, respectively). Norfloxacin was used as a positive control. Fish injected with only bacteria or saline served as negative (untreated) or blank (unchallenged) controls, respectively. […] The fish survival rate was recorded daily for 5 d. Two independent experiments were conducted, including pre-experiment and formal experiment.

S. enteritidis CVCC3377 = settings: CVCC3377
S. aureus ATCC25923 = settings: ATCC25923
[8] = test system: Gram-negative bacteria (except Pseudomonas aeruginosa CICC21630); test: MIC, range over strains; format: cell-based; settings: range over Gram-negative strains of Table 2
Description: as §1

E. coli CVCCO157 = settings: broth microdilution, MHB, 1 × 10^5 CFU/mL, 37 °C 18–24 h, n = 3; some N6 data from ref 19
S. pullorum CVCC1789 = settings: CVCC1789
E. tarda and A. veronii = format: cell-based
Description: as §1

E. coli CVCC1515 = settings: CVCC1515
S. aureus ATCC546 = settings: ATCC546
E. tarda [9] = format: cell-based, Edwardsiella tarda
Description: as §1

[10] = test system: Staphylococcus aureus ATCC43300; settings: ATCC43300
[11] = test system: Pseudomonas aeruginosa CICC21630; settings: CICC21630
RAW 264.7 macrophages = format: cell-based, mouse; settings: 48 h
Description: The colorimetric MTT assay was used to determine the effect of peptides on the viability of murine peritoneal RAW 264.7 macrophage cells. Macrophage cells were added into 96-well plates (5 × 10^3 cells/well) and incubated for 24 h at 37 °C (5% (v/v) CO2/air). A series of peptide solutions were added into the cells and incubated for 48 h. The untreated cells were used as the control (Acontrol). The MTT solution was added into plates, incubated for 4 h, and then removed from plates. Dimethyl sulfoxide (DMSO) was then added into plates and the absorbance was measured at 570 nm in a spectrophotometer. The cell viability was calculated using the following formula: Survival rate (%) = […] × 100.

E. tarda [12] = test: Kirby-Bauer disk diffusion susceptibility; format: cell-based, Edwardsiella tarda; settings: disc diffusion, MHA, 37 °C 18 h, CLSI standard; 27 antibiotics; Supplementary Table S2
Description: The susceptibility of E. tarda to antibiotics was determined by the Kirby-Bauer disk diffusion method according to Clinical Laboratory Standards Institute (CLSI). E. tarda was cultured in TSB medium (10 mL) at 28 °C overnight. The MHA petri dish plates were seeded with a 250 μL bacterial solution (OD600nm = 1.0). […] The diameter of the bacterial inhibition zone was measured, and the results were determined according to the standard of CLSI.

[13] = LPS binding, BODIPY-TR-cadaverine displacement; design: species or system E. coli; settings: 0.5 µM LPS, 5 μM BC, Tris buffer pH 7.4; 0.049 μM to 50 μM; excitation/emission 580/620 nm

CCn1cc(C(=O)O)c(=O)c2cc(F)c(N3CCNCC3)cc21 [Norfloxacin]
percentage of E. tarda stained with PI [1]: less than 1%
histological findings in liver, kidney and intestine (E. tarda [2]): obvious pathological changes were found in organs
MIC [3]: 0.06 to 1 µg/mL (≈ 0.188 to 3.13 µM)
MIC (Edwardsiella tarda): 0.5 µg/mL and 1.57 µM
abnormal cells (TEM) (E. tarda cells): not significantly affected
antibacterial activity at different pH values (E. tarda [4]): strong antibacterial activity
MIC (Staphylococcus hyicus; Staphylococcus hyicus, range over S. hyicus strains of Table 2, read-out: MIC): 4 to 16 µg/mL (≈ 12.5 to 50.1 µM)
number of bacteria in organs (blood, spleen, kidney, liver) (E. tarda [5]): did not decrease in any organs except the liver
antimicrobial activity against E. tarda after exposure to temperature (E. tarda [6]): did not change
survival rate of fish (E. tarda [7]; 0.5 h after E. tarda 1.0 × 10^9 CFU/mL i.p., within 2 d, 6 fish/group): 16.7%
survival rate of fish (E. tarda [7]; time not stated in the sentence (survival recorded for 5 d)): 16.7%

CC(C)[C@@H]1NC(=O)CNC(=O)[C@H](CC(N)=O)NC(=O)[C@H](CCCNC(=N)N)NC(=O)[C@H](Cc2ccc(O)cc2)NC(=O)[C@H](C(C)C)NC(=O)[C@@H](NC(=O)[C@@H](NC(=O)[C@H](CC(N)=O)NC(=O)[C@H](Cc2c[nH]c3ccccc23)NC(=O)[C@H](C)NC(=O)[C@H](Cc2ccccc2)NC(=O)CN)C(C)C)CSSC[C@@H](C(=O)N[C@@H](Cc2c[nH]cn2)C(=O)N[C@@H](CCCNC(=N)N)C(=O)N[C@@H](CCCNC(=N)N)C(=O)N[C@@H](C)C(=O)N[C@@H](CC(N)=O)C(N)=O)NC(=O)[C@H](C(C)C)NC(=O)[C@H](CCCNC(=N)N)NC1=O [Peptide N6NH2] (H-GFAWNVCVYRNGVRVCHRRAN-NH2; disulfide 7-16)
MIC (S. enteritidis CVCC3377): 0.323 µM (≈ 0.799 µg/mL)
MIC (S. aureus ATCC25923): 5.17 µM (≈ 12.8 µg/mL)
MIC (S. hyicus 15095): 1.29 µM (≈ 3.19 µg/mL)
MIC [8]: 0.8 to 3.2 µg/mL
MIC (E. coli CVCCO157): 0.646 µM (≈ 1.6 µg/mL)
MIC (S. pullorum CVCC1789): 1.29 µM (≈ 3.19 µg/mL)
MIC (E. tarda and A. veronii): 0.65 to 1.29 µM
MIC (E. coli CVCC1515): 0.323 µM (≈ 0.799 µg/mL)
MIC (S. aureus ATCC546): 2.58 µM (≈ 6.39 µg/mL)
MBC (E. tarda [9]): 6.4 µg/mL (≈ 2.59 µM)
MIC (S. hyicus 437-2): 5.17 µM (≈ 12.8 µg/mL)
MIC (Staphylococcus hyicus): 3.2 to 12.8 µg/mL
MIC [10]: 2.58 µM (≈ 6.39 µg/mL)
MIC [11]: 10.34 µM (≈ 25.6 µg/mL)

CC(C)[C@@H]1NC(=O)CNC(=O)[C@H](CC(N)=O)NC(=O)[C@H](CCCNC(=N)N)NC(=O)[C@H](Cc2ccc(O)cc2)NC(=O)[C@H](C(C)C)NC(=O)[C@@H](NC(=O)[C@@H](NC(=O)[C@H](CC(N)=O)NC(=O)[C@H](Cc2c[nH]c3ccccc23)NC(=O)[C@H](C)NC(=O)[C@H](Cc2ccccc2)NC(=O)CN)C(C)C)CSSC[C@@H](C(=O)N[C@@H](Cc2cnc[nH]2)C(=O)N[C@@H](CCCNC(=N)N)C(=O)N[C@@H](CCCNC(=N)N)C(=O)N[C@@H](C)C(=O)N[C@@H](CC(N)=O)C(N)=O)NC(=O)[C@H](C(C)C)NC(=O)[C@H](CCCNC(=N)N)NC1=O [Peptide N6NH2] (H-GFAWNVCVYRNGVRVCHRRAN-NH2; disulfide 7-16)
cell survival rate (RAW 264.7 macrophages): > 93.35%

CC(C)[C@@H]1NC(=O)CNC(=O)[C@H](CC(N)=O)NC(=O)[C@H](CCCNC(=N)N)NC(=O)[C@H](Cc2ccc(O)cc2)NC(=O)[C@H](C(C)C)NC(=O)[C@@H](NC(=O)[C@@H](NC(=O)[C@H](CC(N)=O)NC(=O)[C@H](Cc2c[nH]c3ccccc23)NC(=O)[C@H](C)NC(=O)[C@H](Cc2ccccc2)NC(=O)CN)C(C)C)CSSC[C@@H](C(=O)N[C@@H](Cc2cnc[nH]2)C(=O)N[C@@H](CCCNC(=N)N)C(=O)N[C@@H](CCCNC(=N)N)C(=O)N[C@@H](C)C(=O)N[C@@H](CC(N)=O)C(=O)O)NC(=O)[C@H](C(C)C)NC(=O)[C@H](CCCNC(=N)N)NC1=O [Peptide N6] (H-GFAWNVCVYRNGVRVCHRRAN-OH; disulfide 7-16)
cell survival rate (RAW 264.7 macrophages): > 93.35%

CC1(C)S[C@@H]2[C@H](NC(=O)[C@H](N)c3ccc(O)cc3)C(=O)N2[C@H]1C(=O)O [amoxicillin]
susceptibility of E. tarda to antibiotics (E. tarda [12]): resistance

CC1(C)S[C@@H]2[C@H](NC(=O)[C@H](N)c3ccccc3)C(=O)N2[C@H]1C(=O)O [ampicillin, reference compound]
binding to LPS (displacement of BC probe) [13]: neither ampicillin nor norfloxacin replaced the BC probe or bound to LPS

O=C1OCCN1/N=C/c1ccc([N+](=O)[O-])o1 [furazolidone]
susceptibility of E. tarda to antibiotics (E. tarda [12]): resistance

bacitracin
susceptibility of E. tarda to antibiotics (E. tarda [12]): resistance

From publication PMC7766155, “Improved Stability and Activity of a Marine Peptide-N6NH2 against Edwardsiella tarda and Its Preliminary Application in Fish” (Marine Drugs, 2020)
